Assay results taken from publication PMC5557808 (Nature Communications, 2017).
“And” between values parts separate entries of the source, which are not always exact repeats. Identical values can stand only once. Where a SMILES comes first, the peptide text is derived from it. [ ]: non-standard residue; d: D form. The star is where a group is joined. X1 = CC[N+](CC)(CC(=O)Nc1c(C)cccc1C)Cc1cccc(C(=O)*)c1; Aha = [N-]=[N+]=NCC[C@H](N)C(=O)O

Experiment: Cleavage of PCL denatonium conjugate in collected saliva
Format: in vitro ADME, human
Conditions: agitation, mean ± s.d.
Source text: Volunteers were enrolled for a cross-sectional study. One group had peri-implant disease (defined as peri-implantitis or mucositis), the other group were healthy volunteers (asymptomatic patients with at least one dental implant). Unstimulated saliva was collected using an absorbent device. Sulcus fluid was collected from the peri-implant zone using standardized, commercially available MMP-8 collection strips and sent to Dentognostics GmbH (Jena, Germany) for analysis (referred to as chair-side test). Determination of total MMP activity in saliva samples was conducted using the human MMP-8 activity assay (QuickZyme, Leiden, the Netherlands) according to the manufacturer’s instructions. Saliva samples from the cross-sectional study were incubated with D-CLAN3Q (ID #1c) in MMP-8 buffer and cleavage was analyzed by HPLC. Further details are given in the Supplementary Methods.
For the collection of sulcus fluid and saliva from peri-implant d iseased p atien ts and fro m health y volunteers, a cross-section al stud y was initiated with the patient group having either a mucositis or a per i-implantitis vs. health y control. […] In this comparative study, the ability of the sensor diagnostic was assessed to discriminate saliva collected fro m p atien ts with peri -imp lan t disease to as ymp to matic carriers of at least on e i mplant (referred to as healthy control). […]

Cleavage in saliva, healthy subjects, 5-10 min (saliva of healthy volunteers (n = 14) 1:1 with 0.1 mg/mL peptide in MMP buffer pH 6.8-7.0, 37 °C, HPLC decrease of main peak): 1.5 ± 0.8% | Cleavage in saliva, diseased subjects, 5-10 min (saliva of patients with peri-implant disease (n = 19) 1:1 with 0.1 mg/mL peptide in MMP buffer pH 6.8-7.0, 37 °C, HPLC): 4.2 ± 3.34% and < 5%
SMILES: CC[C@H](C)[C@H](NC(=O)CNC(=O)[C@H](CCC(N)=O)NC(=O)[C@@H]1CCCN1C(=O)CNC(=O)c1cccc(C[N+](CC)(CC)CC(=O)Nc2c(C)cccc2C)c1)C(=O)N[C@@H](C)C(=O)NCC(=O)N[C@@H](CCC(N)=O)C(=O)N[C@@H](CCN=[N+]=[N-])C(=O)N[C@@H](CCC(N)=O)C(=O)O [ID #1c] (X1-GPQGIAGQ[Aha]Q-OH)
